Data taken from patent US8772323B2, “Benzoxazole- and tetrahydrobenzoxazole-substituted pyridazinones as GPR119 agonists” (Boehringer Ingelheim International GmbH, priority 2010, dated 2014).
Counter-ions that a name gives are not always drawn.

Molecular target: human GPR119 (Homo sapiens (Human), UniProt Q8TDV5)
Assay: AlphaScreen cAMP assay in Min-6/hGPR119 cells (GPR119 activation, intracellular cAMP)
Format: cell-based
Settings: MIN6 cells stably transfected with human GPR119; 45 minutes' incubation at RT; AlphaScreen cAMP Assay Kit
Summary of the method: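 cAMP quantified by AlphaScreen after 45 min room-temperature compound exposure in HEPES/bicarbonate buffer, pH 7.4, containing 0.5 mM IBMX, 0.1% BSA and 1% DMSO final. Cells were Min-6 stably transfected with human GPR119, seeded 24 h beforehand.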

human GPR119, sequence (Q8TDV5 whole entry): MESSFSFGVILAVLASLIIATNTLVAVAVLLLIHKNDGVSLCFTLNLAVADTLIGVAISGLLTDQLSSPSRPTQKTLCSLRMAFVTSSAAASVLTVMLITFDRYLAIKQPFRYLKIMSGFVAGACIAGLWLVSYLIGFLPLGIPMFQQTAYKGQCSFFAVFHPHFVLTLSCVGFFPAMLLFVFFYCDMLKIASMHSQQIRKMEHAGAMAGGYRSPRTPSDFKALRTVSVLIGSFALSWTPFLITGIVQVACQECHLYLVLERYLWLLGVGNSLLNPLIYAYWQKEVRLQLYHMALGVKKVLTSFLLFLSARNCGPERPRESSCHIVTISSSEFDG

| Compound | EC50 |
| --- | --- |
| CCC1CC(=O)NN=C1c1ccc2nc(-c3ccc(OCCCN4CCCCC4)cc3)oc2c1 (stereo not shown) [Example 161, 5-ethyl-6-{2-[4-(3-piperidin-1-yl-propoxy)-phenyl]-benzoxazol-6-yl}-4,5-dihydro-2H-pyridazin-3-one x HCl] | 0.293 µM |
| C=CC[C@H]1C(=O)NN=C(c2ccc3nc(-c4ccccc4)oc3c2)[C@H]1C (relative stereo) [Example 198, cis-4-allyl-5-methyl-6-(2-phenyl-benzoxazol-6-yl)-4,5-dihydro-2H-pyridazin-3-one] | 0.896 µM |
| CCC1CC(=O)NN=C1c1ccc2nc(-c3ccc(O[C@@H]4CCCC[C@H]4N(CC)CC)cc3)oc2c1 (relative stereo) [Example 224, 6-{2-[4-(trans-2-diethylamino-cyclohexyloxy)-phenyl]-benzoxazol-6-yl}-5-ethyl-4,5-dihydro-2H-pyridazin-3-one] | 0.319 µM |
| CCC1CC(=O)NN=C1c1ccc2nc(-c3ccc(OCCN4CCC5(CCCCC5)CC4)cc3)oc2c1 (stereo not shown) [Example 245, 6-(2-{4-[2-(3-aza-spiro[5.5]undec-3-yl)-ethoxy]-phenyl}-benzoxazol-6-yl)-5-ethyl-4,5-dihydro-2H-pyridazin-3-one] | 0.434 µM |
| CCC1CC(=O)NN=C1c1ccc2nc(-c3ccc(OCC(C)N4CCCC4)cc3)oc2c1 (stereo not shown) [Example 209, 5-ethyl-6-{2-[4-(2-pyrrolidin-1-yl-propoxy)-phenyl]-benzoxazol-6-yl}-4,5-dihydro-2H-pyridazin-3-one] | 0.311 µM |
| CCC1CC(=O)NN=C1c1ccc2nc(-c3cccc(OCCN4CC(C)OC(C)C4)c3)oc2c1 (stereo not shown) [Example 216, 6-(2-{3-[2-(2,6-dimethyl-morpholin-4-yl)-ethoxy]-phenyl}-benzoxazol-6-yl)-5-ethyl-4,5-dihydro-2H-pyridazin-3-one] | 0.639 µM |
| CCC[C@@H]1C(=O)NN=C(c2ccc3nc(-c4ccc(OCCN(C(C)C)C(C)C)cc4)oc3c2)[C@H]1C (relative stereo) [Example 170, trans-6-{2-[4-(2-diisopropylamino-ethoxy)-phenyl]-benzoxazol-6-yl}-5-methyl-4-propyl-4,5-dihydro-2H-pyridazin-3-one] | 0.053 µM |
| O=C1NN=C(c2ccc3nc(-c4ccccc4F)oc3c2)C2CC12 (stereo not shown) [Example 20, 5-[2-(2-fluoro-phenyl)-benzoxazol-6-yl]-3,4-diaza-bicyclo[4.1.0]hept-4-en-2-one] | 0.157 µM |
| CC1CC(=O)NN=C1c1ccc2nc(-c3ccc(OCc4ccccc4)cc3)oc2c1 (stereo not shown) [Example 36, 6-[2-(4-benzyloxy-phenyl)-benzoxazol-6-yl]-5-methyl-4,5-dihydro-2H-pyridazin-3-one] | 0.058 µM |
| CCC1CC(=O)NN=C1c1ccc2nc(-c3ccc(F)c(OC)c3)oc2c1 (stereo not shown) [Example 93, 5-ethyl-6-[2-(4-fluoro-3-methoxy-phenyl)-benzoxazol-6-yl]-4,5-dihydro-2H-pyridazin-3-one] | 0.397 µM |
| CC1CC(=O)NN=C1c1ccc2nc(-c3cccc(CN)c3)oc2c1 (stereo not shown) [Example 125, 6-{2-[3-(aminomethyl)phenyl]1,3-benzoxazol-6-yl}-5-methyl-2,3,4,5-tetrahydropyridazin-3-one] | 1.6 µM |
| CCCC1CC(c2ccc3nc(-c4ccccc4)oc3c2)=NNC1=O (stereo not shown) [Example 9, 6-(2-phenyl-benzoxazol-6-yl)-4-propyl-4,5-dihydro-2H-pyridazin-3-one] | 0.834 µM |
| CCC[C@H]1C(=O)NN=C(c2ccc3nc(-c4ccccc4)oc3c2)[C@H]1C (relative stereo) [Example 129, cis-5-methyl-6-(2-phenyl-benzoxazol-6-yl)-4-propyl-4,5-dihydro-2H-pyridazin-3-one] | 6.72 µM |
| CCC1CC(=O)NN=C1c1ccc2nc(-c3ccc(OCc4cccnc4)cc3)oc2c1 (stereo not shown) [Example 60, 5-ethyl-6-{2-[4-(pyridin-3-ylmethoxy)-phenyl]-benzoxazol-6-yl}-4,5-dihydro-2H-pyridazin-3-one] | 0.639 µM |
| CCC1CC(=O)NN=C1c1ccc2nc(-c3ccc(OCCN4CCC(C)CC4)cc3)oc2c1 (stereo not shown) [Example 243, 5-ethyl-6-(2-{4-[2-(4-methyl-piperidin-1-yl)-ethoxy]-phenyl}-benzoxazol-6-yl)-4,5-dihydro-2H-pyridazin-3-one] | 0.197 µM |
| CCC1CC(=O)NN=C1c1ccc2nc(-c3ccc(OC(F)(F)F)cc3)oc2c1 (stereo not shown) [Example 103, 5-ethyl-6-[2-(4-trifluoromethoxy-phenyl)-benzoxazol-6-yl]-4,5-dihydro-2H-pyridazin-3-one] | 1.21 µM |
| CCC1CC(=O)NN=C1c1ccc2nc(-c3ccc(OC(C)(C)CN4CCOCC4)cc3)oc2c1 (stereo not shown) [Example 231, 6-{2-[4-(1,1-dimethyl-2-morpholin-4-yl-ethoxy)-phenyl]-benzoxazol-6-yl}-5-ethyl-4,5-dihydro-2H-pyridazin-3-one] | 0.12 µM |
| CCCC1CCN(CCOc2ccc(-c3nc4ccc(C5=NNC(=O)CC5CC)cc4o3)cc2)CC1 (stereo not shown) [Example 244, 5-ethyl-6-(2-{4-[2-(4-propyl-piperidin-1-yl)-ethoxy]-phenyl}-benzoxazol-6-yl)-4,5-dihydro-2H-pyridazin-3-one] | 0.181 µM |
| CCCC[C@@H]1C(=O)NN=C(c2ccc3nc(-c4ccccc4)oc3c2)[C@H]1C (relative stereo) [Example 197, trans-4-butyl-5-methyl-6-(2-phenyl-benzoxazol-6-yl)-4,5-dihydro-2H-pyridazin-3-one] | 1.11 µM |

| Compound | EC50 |
| --- | --- |
| CCCC1CC(=O)NN=C1c1ccc2nc(-c3ccccc3)oc2c1 (stereo not shown) [Example 8, 6-(2-phenyl-benzoxazol-6-yl)-5-propyl-4,5-dihydro-2H-pyridazin-3-one] | 0.874 µM |
| COc1ccccc1-c1nc2ccc(C3=NNC(=O)CC3C)cc2o1 (stereo not shown) [Example 86, 6-[2-(2-methoxy-phenyl)-benzoxazol-6-yl]-5-methyl-4,5-dihydro-2H-pyridazin-3-one] | 1.15 µM |
| CCC1CC(=O)NN=C1c1ccc2nc(-c3ccc(N4CCOCC4)cc3)oc2c1 (stereo not shown) [Example 177, 5-ethyl-6-[2-(4-morpholin-4-yl-phenyl)-benzoxazol-6-yl]-4,5-dihydro-2H-pyridazin-3-one] | 0.134 µM |
| CO[C@H]1CC(=O)NN=C1c1ccc2nc(-c3ccccc3)oc2c1 [Example 28, (5S)-5-methoxy-6-(2-phenyl-1,3-benzoxazol-6-yl)-2,3,4,5-tetrahydropyridazin-3-one] | 0.213 µM |
| CCC1OC(=O)NN=C1c1ccc2nc(-c3ccccc3)oc2c1 (stereo in doubt) [Example 80, (R)-6-ethyl-5-(2-phenyl-benzoxazol-6-yl)-3,6-dihydro-[1,3,4]oxadiazin-2-one] | 0.615 µM |
| CC[C@H]1CC(=O)NN=C1c1ccc2nc(-c3ccc(OC4CCOCC4)cc3)oc2c1 [Example 194, (S)-5-ethyl-6-{2-[4-(tetrahydro-pyran-4-yloxy)-phenyl]-benzoxazol-6-yl}-4,5-dihydro-2H-pyridazin-3-one] | 0.333 µM |
| CCC1CC(=O)NN=C1c1ccc2nc(-c3ccc(OC4CCCCC4O)cc3)oc2c1 (stereo not shown) [Example 212, 5-ethyl-6-(2-{4-[(2-hydroxycyclohexyl)oxy]phenyl}-1,3-benzoxazol-6-yl)-2,3,4,5-tetrahydropyridazin-3-one] | 0.108 µM |
| CCC1CC(=O)NN=C1c1ccc2nc(-c3ccc(OC[C@@H]4CCCN4)cc3)oc2c1 (stereo partly shown) [Example 238, 5-ethyl-6-{2-[4-(S-pyrrolidin-2-yl-methoxy)-phenyl]-benzoxazol-6-yl}-4,5-dihydro-2H-pyridazin-3-one×HCl] | 2.95 µM |
| CCC1CC(=O)NN=C1c1ccc2nc(-c3ccccc3)oc2c1 (stereo not shown) [Example 29, 5-ethyl-6-(2-phenyl-benzoxazol-6-yl)-4,5-dihydro-2H-pyridazin-3-one] | 0.181 µM |
| O=C1CCC(c2ccc3nc(-c4cccs4)oc3c2)=NN1 [Example 111, 6-(2-thiophen-2-yl-benzoxazol-6-yl)-4,5-dihydro-2H-pyridazin-3-one] | 0.967 µM |
| CC[C@H]1C(c2ccc3nc(-c4ccccc4)oc3c2)=NNC(=O)[C@@H]1C [Example 147, (4R,5R)-5-ethyl-4-methyl-6-(2-phenyl-1,3-benzoxazol-6-yl)-2,3,4,5-tetrahydropyridazin-3-one] | 0.079 µM |
| CCC1CC(=O)NN=C1c1ccc2nc(-c3cccc(OC)c3)oc2c1 (stereo not shown) [Example 102, 5-ethyl-6-[2-(3-methoxy-phenyl)-benzoxazol-6-yl]-4,5-dihydro-2H-pyridazin-3-one] | 0.316 µM |
| CCC1CC(=O)NN=C1c1ccc2nc(-c3ccc(OCC(C)(C)N4CCCC4)cc3)oc2c1 (stereo not shown) [Example 229, 5-ethyl-6-(2-{4-[2-methyl-2-(pyrrolidin-1-yl)propoxy]phenyl}-1,3-benzoxazol-6-yl)-2,3,4,5-tetrahydropyridazin-3-one] | 0.398 µM |
| CCC1CC(=O)NN=C1c1ccc2nc(-c3ccc(OCc4ccc(S(C)(=O)=O)cc4)cc3)oc2c1 (stereo not shown) [Example 158, 5-ethyl-6-{2-[4-(4-methanesulphonyl-benzoxy)-phenyl]-benzoxazol-6-yl}-4,5-dihydro-2H-pyridazin-3-one] | 1.96 µM |
| CCC1CC(=O)NN=C1c1ccc2nc(-c3ccc(OCCN4CCN(C(C)C)CC4)cc3)oc2c1 (stereo not shown) [Example 168, 5-ethyl-6-(2-{4-[2-(4-isopropyl-piperazin-1-yl)-ethoxy]-phenyl}-benzoxazol-6-yl)-4,5-dihydro-2H-pyridazin-3-one] | 3.01 µM |
| CCC1CC(=O)NN=C1c1ccc2nc(-c3ccc(OCC4CCNCC4)cc3)oc2c1 (stereo not shown) [Example 71, 4-{4-[6-(4-ethyl-6-oxo-1,4,5,6-tetrahydro-pyridazin-3-yl)-benzoxazol-2-yl]-phenoxymethyl}-piperidine as hydrochloride] | > 10 µM |
| CC1CC(=O)NN=C1c1ccc2nc(-c3ccc(Cl)cc3)oc2c1 (stereo not shown) [Example 84, 6-[2-(4-chloro-phenyl)-benzoxazol-6-yl]-5-methyl-4,5-dihydro-2H-pyridazin-3-one] | 0.132 µM |
| CCC1CC(=O)NN=C1c1ccc2nc(-c3ccc(OCCN(CC)C(C)C)cc3)oc2c1 (stereo not shown) [Example 215, 5-ethyl-6-(2-{4-[2-(ethyl-isopropyl-amino)-ethoxy]-phenyl}-benzoxazol-6-yl)-4,5-dihydro-2H-pyridazin-3-one] | 0.106 µM |
